In patent US20110136839A1, “COMBINATION OF TWO ANALGESIC CHEMICALS” (priority 2009, published 2011):
“Also recorded” adds a separate entry of the source.

Assays:
neuropathic pain (SNL) = assay: Neuropathic pain model (spinal nerve ligation), thermal threshold of the hindpaw; type: in vivo, rat
Protocol: PWL responding to heat stimulus ipsilaterally was measured.
Paw withdrawal latency was measured.

[1] = Animal study of blood pressure and heart rate; type: in vivo; conditions: subcutaneous injection at 0.5 mg/kg
[2] = system: carrageenan-evoked hyperalgesia; assay: Carrageenan model of inflammation, thermal hyperalgesia (paw withdrawal latency); type: in vivo; conditions: rat; for effect on thermal hyperalgesia in carrageenan model (paw withdrawal latency): subcutaneous (systemic) injection 1 hour after carrageenan; for effect on inflammatory hyperalgesia at higher dose (FIG. 7D): subcutaneous injection at 1 hour, doses higher than those in FIG. 7C
[3] = system: carrageenan-evoked hyperalgesia; assay: as above; type: in vivo; conditions: rat; for reversal of the hypoalgesia by naloxone (opioid receptor antagonist): drug i.pl. at 1 hour, naloxone chloride or naloxone methiodide s.c. at 24 hours after carrageenan; for effect on carrageenan-evoked thermal hyperalgesia (paw withdrawal latency): intraplantar (local) injection in the inflamed paw 1 hour after carrageenan
Protocol: Rats received a subcutaneous injection of carrageenan (2% in saline, 100 μl) in the right hindpaw (intraplantar injection). Drug or vehicle were administered intraplantarly (i.pl., 50 μl) 1 hour after carrageenan injection and behavioral testing was performed at various time points. Nociceptive threshold responding to heat was determined as described before (Williams et al., 1990; Wisden et al., 1990: Jiang et al., 2006). Briefly, rat was placed in a device that held the body without restraining the head and legs. Noxious heat stimulation was carried out by immersing the hindpaw up to the ankle joint into a slowly stirred water bath at 47.5° C. while holding the animal with the device. […] Paw withdrawal latency for any test time point was measured twice at 3-min intervals and the mean values were calculated. Baseline latency was measured 10 min before drug or vehicle administration.
Effects of ketanserin on carrageenan-evoked hyperalgesia are illustrated in FIG. 1. Paw withdrawal latencies in seconds were measured in plantar test at the various time points. Data were normalized as percentage of pretreatment baseline (100%) and expressed as the mean ±SEM (standard error of mean).
Paw withdrawal latencies in seconds were determined in plantar test at the various time points. Data were normalized as percentage of pretreatment baseline (100%) and expressed as the mean ±SEM. Carrageenan and ketanserin (20 μg) were given i.pl. into unilateral hindpaw at 0 and 1 hour, respectively.
Paw withdrawal latencies in seconds were examined at the various time points. Data were normalized as percentage of pretreatment baseline (100%) and expressed as the mean ±SEM.
Carrageenan and […] (30 μg) were given i.pl. into unilateral hindpaw at 0 and 1 hour, respectively. Then naloxone chloride (5 mg/ml/kg) or naloxone methiodide (10 mg/ml/kg) or saline (1 ml/kg) was injected s.c. (subcutaneous injection) at 24hours after carrageenan. Paw withdrawal latencies in seconds were measured at the various time points.
Carrageenan (2%, 100 μl) was administered i.pl. at 0 hour and saline (50 μl, i.pl.) or ketanserin (2 μg, i.pl.)+WAY100635 (3 μg, i.pl.) at 1 hour. The results are illustrated in FIG. 5. Paw withdrawal latencies in seconds were examined at the various time points.
Carrageenan model—See those described before.

Structure (SMILES)	tolerance (neuropathic pain (SNL); rat neuropathic pain model, thermal, s.c. injection)	thermal nociceptive threshold in Chung's model of neuropathic pain (paw withdrawal latency) (neuropathic pain (SNL); rat, s.c. starting at day 4 after spinal nerve ligation)	blood pressure [1]	heart rate [1]	effect on thermal hyperalgesia in carrageenan model (paw withdrawal latency) [2]	effect on inflammatory hyperalgesia at higher dose (FIG. 7D) [2]	reversal of the hypoalgesia by naloxone (opioid receptor antagonist) [3]	reversal of the hypoalgesia by naloxone (opioid receptor antagonist) ([3]; listed as Ketanserin)	effect on carrageenan-evoked thermal hyperalgesia (paw withdrawal latency) [3]
O=C(c1ccc(F)cc1)C1CCN(CCn2c(=O)[nH]c3ccccc3c2=O)CC1 [ketanserin]	without tolerance	dose-dependently inhibits	does not alter	does not alter	produces significant inhibition on the nociceptive threshold	exerted stronger effect	abolished by i.p. naloxone	mediated by opioid analgesia mechanism	dose-dependently produces hypoalgesia; also recorded: prolonging in paw withdrawal latency
COc1ccccc1N1CCN(CCN(C(=O)C2CCCCC2)c2ccccn2)CC1 [WAY100635]	–	–	–	–	–	–	mediated by opioid analgesia mechanism	–	dose-dependently produces hypoalgesia
COc1cc2nc(N3CCN(C(=O)c4ccco4)CC3)nc(N)c2cc1OC [prazosin]	–	–	–	–	–	–	–	–	failed to alter the carrageenan-evoked response
CC(C)NCC(O)COc1cccc2ccccc12 (stereo not drawn) [propranolol]	–	–	does not alter	does not alter	produces significant inhibition on the nociceptive threshold	exerted stronger effect	abolished by i.p. naloxone	–	prolonging in paw withdrawal latency
